The values that follow are results of earlier work, collected in patent US11833149B2, “Pulse dosing regimen and methods of treatment” (OSI Pharmaceuticals, LLC, priority 2016, dated 2023).

The structures appear in SMILES notation.

The conditions of the series: pH of approximately 2; over the pH range of 1.4 to 9.6; cited from earlier work.

As for `C#Cc1cccc(Nc2ncnc3cc(OCCOC)c(OCCOC)cc23)c1.Cl` [Erlotinib hydrochloride], the maximal aqueous solubility entry was “approximately 0.4 mg/mL”.
